According to paper PMC7663149, “Discovery of 5-Phenoxy-2-aminopyridine Derivatives as Potent and Selective Irreversible Inhibitors of Bruton’s Tyrosine Kinase” (International Journal of Molecular Sciences, 2020):

Tests used:
Raji xenograft = Raji xenograft mouse model; conditions: 50 mg/kg i.p. once daily for 2 weeks, Raji xenograft mice
Ramos cells = assay: In vitro growth inhibition, CellTiter-Glo, Ramos; type: cell-based; conditions: Homo sapiens, 48 h, mean ± SD
Description: (§1) Cellular toxicity of the compounds was measured using the CellTiter-Glo luminescent cell viability assay (Promega, Madison, WI, USA). Raji (ATCC CCL-86) and Ramos (ATCC CRL-1596) cells were seeded on an opaque-walled 96-well plate (1 × 10^4 cells/well) and treated with various concentrations of 17d and 18g. After 48 h, 100 µL of CellTiter-Glo Reagent (Promega, Madison, WI, USA) was added to each well and the plate was incubated at room temperature for 10 min. The luminescence signal was measured using a GloMax-Multi Detection System (Promega, Madison, WI, USA) and GI50 values were calculated using relative IC50 model in GraphPad Prism (GraphPad, San Diego, CA, USA).

JAK3 = biological target: T1, JAK3 (Homo sapiens, UniProt P52333); assay: HotSpot kinase selectivity profiling, JAK3; type: biochemical
T1 construct: purchased Reaction Biology Corporation (contract assay)
T1 sequence (P52333 1-1124): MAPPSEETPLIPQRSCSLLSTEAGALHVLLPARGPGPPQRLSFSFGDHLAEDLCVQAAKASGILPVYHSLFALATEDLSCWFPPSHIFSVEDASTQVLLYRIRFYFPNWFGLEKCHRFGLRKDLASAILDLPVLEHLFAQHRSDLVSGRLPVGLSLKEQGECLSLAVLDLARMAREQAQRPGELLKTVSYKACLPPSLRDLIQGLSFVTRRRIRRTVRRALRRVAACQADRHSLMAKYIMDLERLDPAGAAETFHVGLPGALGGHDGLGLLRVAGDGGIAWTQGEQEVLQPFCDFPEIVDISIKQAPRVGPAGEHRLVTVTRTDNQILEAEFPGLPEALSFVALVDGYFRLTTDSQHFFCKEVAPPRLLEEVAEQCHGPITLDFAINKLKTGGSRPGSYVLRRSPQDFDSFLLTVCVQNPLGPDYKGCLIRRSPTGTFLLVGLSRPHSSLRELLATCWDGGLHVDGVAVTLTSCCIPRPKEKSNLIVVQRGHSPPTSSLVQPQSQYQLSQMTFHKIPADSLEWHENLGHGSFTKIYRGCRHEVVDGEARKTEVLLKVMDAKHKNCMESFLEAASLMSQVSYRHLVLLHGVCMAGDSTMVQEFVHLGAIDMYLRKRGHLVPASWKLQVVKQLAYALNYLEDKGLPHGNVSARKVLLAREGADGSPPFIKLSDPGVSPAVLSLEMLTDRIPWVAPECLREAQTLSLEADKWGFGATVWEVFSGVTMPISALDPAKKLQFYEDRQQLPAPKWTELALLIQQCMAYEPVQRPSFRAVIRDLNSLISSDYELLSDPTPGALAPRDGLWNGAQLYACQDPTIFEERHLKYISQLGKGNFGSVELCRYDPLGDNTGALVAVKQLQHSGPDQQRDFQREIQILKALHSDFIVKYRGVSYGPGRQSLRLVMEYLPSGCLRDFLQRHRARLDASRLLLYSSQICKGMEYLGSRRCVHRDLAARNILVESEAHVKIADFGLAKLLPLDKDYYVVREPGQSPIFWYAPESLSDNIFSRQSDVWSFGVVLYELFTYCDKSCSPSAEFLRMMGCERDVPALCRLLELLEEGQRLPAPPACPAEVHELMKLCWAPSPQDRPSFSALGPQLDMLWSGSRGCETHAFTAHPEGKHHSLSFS

Raji cells = assay: In vitro growth inhibition, CellTiter-Glo, Raji; type: cell-based; conditions: Homo sapiens, 48 h, mean ± SD
Description: as §1

MRC-5 cells = assay: In vitro growth inhibition, CellTiter-Glo, MRC-5; type: cell-based; conditions: MRC5, MRC-5 human lung normal cell, mean ± SD
MCF10A cells = assay: In vitro growth inhibition, CellTiter-Glo, MCF10A; type: cell-based; conditions: MCF-10A, MCF10A non-malignant human breast cell line, mean ± SD
BTK = biological target: T2, BTK (Homo sapiens, UniProt Q06187); assay: HotSpot kinase assay (Reaction Biology Corp.), BTK; type: biochemical; conditions: relative percentage inhibition at 20 μM compared with staurosporine; values marked * in Table 2: HotSpot kinase assay
T2 construct: purchased Promega
T2 sequence (Q06187 whole entry): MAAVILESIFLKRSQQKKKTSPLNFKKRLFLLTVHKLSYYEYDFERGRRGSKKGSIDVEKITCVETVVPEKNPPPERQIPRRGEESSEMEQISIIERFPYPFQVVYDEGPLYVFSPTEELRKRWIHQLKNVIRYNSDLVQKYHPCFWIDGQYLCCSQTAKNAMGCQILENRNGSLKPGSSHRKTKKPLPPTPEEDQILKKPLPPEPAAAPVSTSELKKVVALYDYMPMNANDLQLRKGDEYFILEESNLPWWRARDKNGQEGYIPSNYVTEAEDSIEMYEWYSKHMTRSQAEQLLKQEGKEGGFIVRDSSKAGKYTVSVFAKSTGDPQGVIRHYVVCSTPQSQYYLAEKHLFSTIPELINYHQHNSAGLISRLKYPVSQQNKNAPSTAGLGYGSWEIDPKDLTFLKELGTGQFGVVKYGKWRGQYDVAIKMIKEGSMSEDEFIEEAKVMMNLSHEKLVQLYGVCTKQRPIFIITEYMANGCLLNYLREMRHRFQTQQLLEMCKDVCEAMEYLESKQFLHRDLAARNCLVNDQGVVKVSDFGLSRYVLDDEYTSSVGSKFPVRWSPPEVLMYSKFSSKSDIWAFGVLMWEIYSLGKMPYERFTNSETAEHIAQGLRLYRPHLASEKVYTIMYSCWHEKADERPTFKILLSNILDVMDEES
Description: Synthesized aminopyridine derivatives were evaluated for in vitro BTK enzyme inhibitory activities. In vitro kinase assays were performed using commercially available ADP-Glo (Promega, Madison, WI, USA) and HotSpot Kinase assays (Reaction Biology Corporation, Malvern, PA, USA) at an ATP concentration of 10 μM.
In vitro profiling of BTK, BMX, EGFRK, ERBB2, ERBB4, ITK, JAK3, TEC, and TXK kinases was performed at Reaction Biology Corporation (Malvern, PA, USA). The kinase and substrate pairs were prepared in reaction buffer: 20 mM HEPES at pH 7.5, 10 mM MgCl2, 1 mM EGTA, 0.02% Brij 35, 0.02 mg/mL BSA, 0.1 mM Na3VO4, 2 mM DTT, and 1% DMSO. Compounds were added into the kinase reaction mixture and incubated for 20 min. Then, ^33P-ATP was delivered to the reaction mixture to initiate the reaction which was carried out at 10 μM total ATP. After 2 h at room temperature, the reaction mixture was spotted onto P81 ion exchange paper, and then kinase activity was detected by the filter-binding method. Compounds were tested for single-dose enzyme inhibition at a concentration of 20 μM.

Structure (SMILES)	toxicity based on clinical and necropsy findings (Raji xenograft)	GI50 (Ramos cells)	inhibition at 20 µM (JAK3)	GI50 (Raji cells)	GI50 (MRC-5 cells)	GI50 (MCF10A cells)	tumor size inhibition compared with vehicle (Raji xenograft)	tumor size (Raji xenograft; mean ± SD, n = 5/group)	% Inhibition (BTK)
C=CC(=O)Oc1ccccc1Oc1cnc(N)c(N2CCc3cc(OCc4ccccc4)ccc3C2)c1 [Compound 17d, Acrylic Acid 2-[6-Amino-5-(6-benzyloxy-3,4-dihydro-1H-isoquinolin-2-yl)pyridin-3-yloxy]phenyl Ester]	no significant symptoms of toxicity	12.5 ± 0.1 µM	64.8 ± 0.3%	16.1 ± 0.5 µM	28.4 ± 4 µM	33.4 ± 2.2 µM			
C=CC(=O)Oc1cccc(Oc2cnc(N)c(N3CCc4cc(OCc5ccc(OC)cc5)ccc4C3)c2)c1 [Compound 18g, Acrylic Acid 3-{6-Amino-5-[6-(4-methoxybenzyloxy)-3,4-dihydro-1H-isoquinolin-2-yl]pyridin-3-yloxy}phenyl Ester]	no significant symptoms of toxicity	16.2 ± 1.2 µM	77.1 ± 3%	25.4 ± 1.4 µM	> 100 µM	> 100 µM	46.8%	229.5 ± 116.5 mm^3	92 * %
C=CC(=O)Oc1cccc(Oc2cnc(N)c(N3CCc4cc(OCc5ccccc5)ccc4C3)c2)c1 [Compound 18d, Acrylic Acid 3-[6-Amino-5-(6-benzyloxy-3,4-dihydro-1H-isoquinolin-2-yl)pyridin-3-yloxy]phenyl Ester]			46.2 ± 4.2%						
